Laboratory results reported in patent US6670394B1, “Method for treating COPD” (SmithKline Beecham Corporation, priority 1999, dated 2003).

Columns and labels:
[1] = target: T1, low affinity form of PDE 4 (human monocyte PDE 4 / hrPDE) (Homo sapiens, UniProt P27815); assay: PDE 4 catalytic activity assay (low affinity form, LPDE 4); format: biochemical; settings: HPDE 4 IC50/LPDE 4 IC50
T1 construct: made in house; host or cells: yeast
Description: Overall, most of the recombinant PDE 4 expressed in this system exists as LPDE 4 and only a small fraction as HPDE 4. Consequently, inhibition of recombinant PDE 4 catalytic activity primarily reflects the actions of compounds at LPDE 4. Inhibition of PDE 4 catalytic activity can thus be used as an index of the potency of compounds at LPDE 4.

[2] = target: high affinity rolipram binding site of PDE 4; assay: [3H]-rolipram binding competition assay (high affinity form, HPDE 4); settings: competition for 1 nM [3H]-rolipram, rat brain high speed supernatants, 1 hour at 30° C.
Description: Rat brain high speed supernatants were used as a source of protein. […] The assay was run for 1 hour at 30° C. The reaction was terminated and bound ligand was separated from free ligand using a Brandel cell harvester. Competition for the high affinity binding site was assessed under conditions that were identical to those used for measuring low affinity PDE activity, expect that [^3H]-cAMP and [^3H]5′-AMP were not present.

[3] = tested on: TNFα production from isolated human monocytes; acid secretion in isolated rabbit parietal glands; assay: Therapeutic index, in vitro comparison: TNFα suppression in human monocytes versus acid secretion in rabbit parietal glands; format: cell-based; settings: in comparison with R-rolipram
Description: Samples were then centrifuged and radioactivity in aliquots of the supernatant fraction and pellet were determined. […] The data were expressed as a percent of a response produced by a maximal concentration of histamine (100 μM). EC50 values were determined by linear interpolation using the maximum response obtained for each compound.
TNFα inhibition was assessed in human peripheral blood monocytes which were purified (Collata) from freshly obtained buffy coats or plasma-phoresis residues of blood from normal human donors. […] The cells were allowed to adhere for 1 hr, after which time the supernatant was aspirated and 1 ml of fresh medium (RPMI-1640 containing 1% fetal calf serum and penicillin/streptomycin at 10 U/ml) was added. The cells were incubated for 45 min in the presence or absence of test compounds at concentrations ranging from 1 nM to 1 mM prior to the addition of LPS (E. coli. 055:B5, Sigma Chemicals) to yield a final concentration of 100 ng/ml. […]
Levels of TNFα were measured using a ELISA (Winston) employing a murine monoclonal anti-human TNFα antibody (see below) as the capture antibody and a polyclonal rabbit antihuman TNFα as the second antibody. […] TNFα levels in samples were calculated from a standard curve generated with recombinant human TNFα produced in E. coli. […]

acid secretion = settings: rats, particularly in combination with an activator of adenylate cyclase such as histamine; cited from earlier work
COPD = assay: Administration to humans suffering from COPD; format: in vivo, human
Description: As regards treating COPD, the compound cis-[4-cyano-4-(3-cyclopentyloxy-4-methoxyphenyl)cyclohexan-1-carboxylate] was administered to humans suffering from COPD.

[4] = clinical studies; cited from earlier work

T1 sequence (P27815 1-686 isoform P27815-3): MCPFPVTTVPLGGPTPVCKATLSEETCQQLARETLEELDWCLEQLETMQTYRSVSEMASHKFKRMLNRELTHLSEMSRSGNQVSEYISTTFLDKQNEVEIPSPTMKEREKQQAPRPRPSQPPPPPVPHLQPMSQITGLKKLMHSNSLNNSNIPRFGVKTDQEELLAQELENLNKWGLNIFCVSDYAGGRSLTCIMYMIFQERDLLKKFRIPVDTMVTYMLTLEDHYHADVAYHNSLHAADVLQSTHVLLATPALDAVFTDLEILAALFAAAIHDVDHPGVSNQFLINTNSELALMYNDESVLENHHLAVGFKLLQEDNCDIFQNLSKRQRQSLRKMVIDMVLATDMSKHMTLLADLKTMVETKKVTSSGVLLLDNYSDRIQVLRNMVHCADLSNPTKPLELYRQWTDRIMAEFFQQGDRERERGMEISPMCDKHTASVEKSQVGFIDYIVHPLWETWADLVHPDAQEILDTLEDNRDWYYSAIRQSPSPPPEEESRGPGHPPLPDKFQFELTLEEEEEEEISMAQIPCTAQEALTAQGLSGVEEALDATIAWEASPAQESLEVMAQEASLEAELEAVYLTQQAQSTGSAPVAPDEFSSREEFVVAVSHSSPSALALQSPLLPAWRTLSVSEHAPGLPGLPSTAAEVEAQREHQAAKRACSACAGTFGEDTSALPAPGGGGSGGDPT

Structure (SMILES)	High/Low Ratio (IC50 high affinity form divided by IC50 low affinity form) [1]	also measured
COc1ccc([C@@H]2CC[C@H](C(=O)O)C2)cc1OC1CCCC1 (relative stereo) [cis-[3-(3-cyclopentyloxy-4-methoxyphenyl)cyclopentane-1-carboxylate]]	0.0078	IC50 [2]: 21 nM
COc1ccc(C2CN(Cc3ccc(N)cc3)C(=O)N2)cc1OC1CCCC1 (centres unmarked) [1-(4-aminobenzyl)-4-(3-cyclopentyloxy-4-methoxyphenyl)-2-imidazolidinone]	0.07	
COc1ccc(C2CCC(c3nnn[nH]3)C2)cc1OC1CCCC1 (centres unmarked) [1-(5-tetrazole)-3-(3-cyclopentyloxy-4-methoxyphenyl)cyclopentane]	0.0018	
COC(=O)C1CC(C#N)(c2ccc(OC(F)F)c(OCC3CC3)c2)CCC1=O (centres unmarked) [2-carbomethoxy-4-cyano-4-(3-cyclopropylmethoxy-4-difluoromethoxyphenyl)cyclohexan-1-one]		improvement in therapeutic index [3]: 100 fold
COc1ccc(C2CCN(Cc3ccc(NC(=NC#N)SC)cc3)C2=O)cc1OC1CCCC1 (centres unmarked) [3-(cyclopentyloxy-4-methoxyphenyl)-1-(4-N′-[N2-cyano-S-methyl-isothioureido]benzyl)-2-pyrrolidone]	0.30	
CCOC(=O)C=C1C[C@H](c2ccc(OC)c(OC3CCCC3)c2)CN1 [(R)-(+)-ethyl [4-(3-cyclopentyloxy-4-methoxyphenyl)pyrrolidine-2-ylidene]acetate]	2.143	
CCOC(=O)C=C1C[C@@H](c2ccc(OC)c(OC3CCCC3)c2)CN1 [(S)-(−)-ethyl[4-(3-cyclopentyloxy-4-methoxyphenyl)pyrrolidine-2-ylidene]acetate]	.98	
CC(C)Cn1c(=O)n(C)c(=O)c2[nH]cnc21 [IBMX, reference compound]	0.698	
NC(=O)C(=O)NCCc1ccc(OC(F)F)c(OC(F)F)c1 [N-[2-(3,4-bisdifluoromethoxy-phenyl)ethyl]oxamide]	0.25	
COc1ccc(CCNC(=O)C(N)=O)cc1OC1CCCC1 [N-[2-(3-cyclopentyloxy-4-methoxyphenyl)ethyl]oxamide]	0.013	
CCCCOc1cc(CC2CNC(=O)N2)ccc1OC (centres unmarked) [Ro 20-1724]		acid secretion (acid secretion): enhance acid secretion
COc1ccc(C2(C#N)CCC(C(=O)O)CC2)cc1OC1CCCC1 (stereo not drawn) [cis-[4-cyano-4-(3-cyclopentyloxy-4-methoxyphenyl)cyclohexan-1-carboxylate]]		effect in subjects suffering from COPD (COPD): reduced inflammation, bronchodilation and pulmonary neuromodulation
N#CC1(c2ccc(OC(F)F)c(OCC3CC3)c2)CCC(O)CC1 (stereo not drawn) [cis-[4-cyano-4-(3-cyclopropylmethoxy-4-difluoromethoxyphenyl)cyclohexan-1-ol]]		improvement in therapeutic index [3]: 100 fold
OCCN(CCO)c1nc(N2CCCCC2)c2nc(N(CCO)CCO)nc(N3CCCCC3)c2n1 [dipyridamole, reference compound]	6.25	
COc1ccc(C2CNC(=O)C2)cc1OC1CCCC1 (centres unmarked) [rolipram]		side effects [4]: has psychotropic activity and produces gastrointestinal effects; acid secretion (acid secretion): enhance acid secretion
